Source: ChEMBL document CHEMBL4382198, “Discovery of Risdiplam, a Selective Survival of Motor Neuron-2 ( SMN2) Gene Splicing Modifier for the Treatment of Spinal Muscular Atrophy (SMA)” (J Med Chem, 2018)

What was measured:
Homo sapiens [1] = species on record: Homo sapiens; assay: Activation of human full length SMN2 mRNA expressed in human SMA-derived fibroblasts by RT-qPCR analysis
[2] = target: Survival motor neuron protein (Homo sapiens) (UniProt Q16637); assay: Activation of SMN protein in human SMA-derived fibroblasts after 48 hrs by HTRF assay
Survival motor neuron protein (Homo sapiens), sequence (Q16637 whole entry): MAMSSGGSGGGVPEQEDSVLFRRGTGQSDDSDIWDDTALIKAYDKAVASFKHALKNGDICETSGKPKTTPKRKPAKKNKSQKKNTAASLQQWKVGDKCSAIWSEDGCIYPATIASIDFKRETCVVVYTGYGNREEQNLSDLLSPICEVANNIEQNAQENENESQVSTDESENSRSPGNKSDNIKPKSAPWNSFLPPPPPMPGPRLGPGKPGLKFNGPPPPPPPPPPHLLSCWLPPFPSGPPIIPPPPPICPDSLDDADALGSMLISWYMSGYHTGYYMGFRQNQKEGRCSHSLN

in vivo = details: rat
[3] = Effect on human FOXM1b/c mRNA splicing expressed in human SMA-derived fibroblasts by RT-qPCR analysis; type: ADME
[4] = Drug metabolism in po dosed rat plasma assessed as dealkylated 2-(4-ethyl-6-methylpyrazolo[1,5-a]pyrazin-2-yl)-9-methyl-7-(piperidin-4-yl)-4H-pyrido[1,2-a]pyrimidin-4-one metabolite formation; type: ADME, organism-based; details: in vivo
[5] = Drug metabolism in po dosed mouse plasma assessed as dealkylated 2-(4-ethyl-6-methylpyrazolo[1,5-a]pyrazin-2-yl)-9-methyl-7-(piperidin-4-yl)-4H-pyrido[1,2-a]pyrimidin-4-one metabolite formation; type: ADME, organism-based; details: in vivo
[6] = Efflux ratio of permeability in human SMA-derived fibroblasts; type: ADME, cell-based, Fibroblast; details: not told
[7] = Drug metabolism in po dosed cynomolgus monkey plasma assessed as dealkylated 2-(4-ethyl-6-methylpyrazolo[1,5-a]pyrazin-2-yl)-9-methyl-7-(piperidin-4-yl)-4H-pyrido[1,2-a]pyrimidin-4-one metabolite formation; type: ADME, organism-based, Macaca fascicularis; details: in vivo
[8] = Efflux ratio of permeability in mouse 3T3 cells; type: ADME, cell-based, NIH3T3
[9] = Tmax in human; type: ADME
[10] = Terminal half life in human; type: ADME; details: read-out: beta t1/2 (converted)
Homo sapiens [11] = species on record: Homo sapiens; assay: Modulation of human SMN2 mRNAsplicing expressed in HEK293H cells by qRT-PCR analysis; type: cell-based
[12] = Effect on human FOXM1a mRNA splicing expressed in human SMA-derived fibroblasts by RT-qPCR analysis; type: ADME
[13] = Effect on FOXM1b/c mRNA splicing in human induced pluripotent stem cells by RT-qPCR analysis; type: ADME
[14] = Effect on FOXM1b/c mRNA splicing in cynomolgus monkey induced pluripotent stem cells by RT-qPCR analysis; type: ADME, Macaca fascicularis
[15] = target: Voltage-gated inwardly rectifying potassium channel KCNH2 (Homo sapiens, UniProt Q12809); assay: (§1) Inhibition of human ERG at 37 degC
Voltage-gated inwardly rectifying potassium channel KCNH2, sequence (Q12809 whole entry): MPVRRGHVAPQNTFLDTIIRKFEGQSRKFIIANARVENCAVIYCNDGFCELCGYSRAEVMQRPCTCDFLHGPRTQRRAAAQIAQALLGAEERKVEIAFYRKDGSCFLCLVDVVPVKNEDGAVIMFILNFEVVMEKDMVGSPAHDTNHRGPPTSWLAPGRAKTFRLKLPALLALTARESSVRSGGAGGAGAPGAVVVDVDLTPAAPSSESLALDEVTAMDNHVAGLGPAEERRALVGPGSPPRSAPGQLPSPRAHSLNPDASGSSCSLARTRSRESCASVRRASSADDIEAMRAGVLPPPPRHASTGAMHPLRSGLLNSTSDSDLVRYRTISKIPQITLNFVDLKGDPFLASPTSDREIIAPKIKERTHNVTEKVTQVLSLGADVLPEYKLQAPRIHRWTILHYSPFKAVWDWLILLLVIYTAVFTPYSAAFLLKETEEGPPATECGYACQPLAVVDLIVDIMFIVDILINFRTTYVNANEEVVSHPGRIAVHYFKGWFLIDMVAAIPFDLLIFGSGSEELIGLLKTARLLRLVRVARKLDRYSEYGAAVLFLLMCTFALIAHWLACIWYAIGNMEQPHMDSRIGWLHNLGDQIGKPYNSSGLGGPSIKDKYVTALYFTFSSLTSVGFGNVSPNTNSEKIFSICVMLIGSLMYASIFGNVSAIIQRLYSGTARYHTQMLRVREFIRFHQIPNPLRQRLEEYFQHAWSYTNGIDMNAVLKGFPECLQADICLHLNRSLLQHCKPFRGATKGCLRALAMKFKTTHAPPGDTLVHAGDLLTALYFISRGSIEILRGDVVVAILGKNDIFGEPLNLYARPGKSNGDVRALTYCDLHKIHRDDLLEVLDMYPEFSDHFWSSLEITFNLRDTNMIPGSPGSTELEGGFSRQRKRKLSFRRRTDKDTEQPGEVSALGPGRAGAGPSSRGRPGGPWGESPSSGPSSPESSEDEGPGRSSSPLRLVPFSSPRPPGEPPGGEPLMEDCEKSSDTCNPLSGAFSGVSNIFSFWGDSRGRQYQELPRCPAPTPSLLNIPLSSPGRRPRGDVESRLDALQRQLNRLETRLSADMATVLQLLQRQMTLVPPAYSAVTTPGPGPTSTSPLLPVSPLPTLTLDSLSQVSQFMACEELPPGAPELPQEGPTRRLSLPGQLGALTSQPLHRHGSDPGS

hERG (KCNH2) = hERG (KCNH2) (Homo sapiens, UniProt Q12809); assay: as §1; details: human
hERG (KCNH2), sequence (Q12809 whole entry): as above

[16] = Cardiotoxicity in cynomolgus monkey assessed as prolongation of QTc interval time; type: toxicity, Macaca fascicularis
NIH3T3 = assay: Phototoxicity in mouse 3T3 cells assessed as decrease in cell viability in presence of UV light by neutral red uptake assay; type: cell-based; details: NIH3T3, light or radiation study
[17] = Dark toxicity in mouse 3T3 cells assessed as decrease in cell viability by neutral red uptake assay; type: cell-based, NIH3T3
[18] = Volume of distribution at steady state in cynomolgus monkey; type: ADME, Macaca fascicularis; details: in vivo, read-out: Vdss
[19] = Terminal half life in rat; type: ADME; details: in vivo, read-out: beta t1/2 (converted)
[20] = Terminal half life in cynomolgus monkey; type: ADME, Macaca fascicularis; details: in vivo, read-out: beta t1/2 (converted)
[21] = Drug metabolism in human plasma assessed as dealkylated 2-(4-ethyl-6-methylpyrazolo[1,5-a]pyrazin-2-yl)-9-methyl-7-(piperidin-4-yl)-4H-pyrido[1,2-a]pyrimidin-4-one metabolite formation; type: ADME, cell-free
[22] = Drug metabolism in rat plasma assessed as dealkylated 2-(4-ethyl-6-methylpyrazolo[1,5-a]pyrazin-2-yl)-9-methyl-7-(piperidin-4-yl)-4H-pyrido[1,2-a]pyrimidin-4-one metabolite formation; type: ADME, cell-free
[23] = Drug metabolism in dog plasma assessed as dealkylated 2-(4-ethyl-6-methylpyrazolo[1,5-a]pyrazin-2-yl)-9-methyl-7-(piperidin-4-yl)-4H-pyrido[1,2-a]pyrimidin-4-one metabolite formation; type: ADME, cell-free, Canis lupus familiaris
[24] = Drug metabolism in pig plasma assessed as dealkylated 2-(4-ethyl-6-methylpyrazolo[1,5-a]pyrazin-2-yl)-9-methyl-7-(piperidin-4-yl)-4H-pyrido[1,2-a]pyrimidin-4-one metabolite formation; type: ADME, cell-free, Sus scrofa
[25] = Drug metabolism in cynomolgus monkey plasma assessed as dealkylated 2-(4-ethyl-6-methylpyrazolo[1,5-a]pyrazin-2-yl)-9-methyl-7-(piperidin-4-yl)-4H-pyrido[1,2-a]pyrimidin-4-one metabolite formation; type: ADME, cell-free, Macaca fascicularis
[26] = Drug metabolism in mouse plasma assessed as dealkylated 2-(4-ethyl-6-methylpyrazolo[1,5-a]pyrazin-2-yl)-9-methyl-7-(piperidin-4-yl)-4H-pyrido[1,2-a]pyrimidin-4-one metabolite formation; type: ADME, cell-free
[27] = Drug metabolism in rabbit plasma assessed as dealkylated 2-(4-ethyl-6-methylpyrazolo[1,5-a]pyrazin-2-yl)-9-methyl-7-(piperidin-4-yl)-4H-pyrido[1,2-a]pyrimidin-4-one metabolite formation; type: ADME, cell-free, Oryctolagus cuniculus
[28] = Lipophilicity, log D of the compound at pH 7.4; type: physicochemical; details: buffer
[29] = Clearance in rat at 2 mg/kg, iv administered as single dose; type: ADME, organism-based; details: in vivo
[30] = Volume of distribution at steady state in rat at 2 mg/kg, iv administered as single dose; type: ADME, organism-based; details: in vivo, read-out: Vdss
[31] = Half life in rat at 5 mg/kg, po administered as single dose; type: ADME, organism-based; details: in vivo
[32] = Oral bioavailability in rat at 5 mg/kg administered as single dose; type: ADME, organism-based; details: in vivo
[33] = Half life in cynomolgus monkey at 1.3 mg/kg, po administered as single dose; type: ADME, organism-based, Macaca fascicularis; details: in vivo
[34] = Oral bioavailability in cynomolgus monkey at 1.3 mg/kg administered as single dose; type: ADME, organism-based, Macaca fascicularis; details: in vivo
Mus musculus [35] = assay: In-vivo stabilization of SMN2 mRNA in SMA neonatal delta7 mouse model assessed as increase in free SMN protein levels by measuring free AUC (0 to 42 hrs) at 1 mg/kg, ip dosed once daily starting from postnatal day 3 to postnatal day 9; type: functional
Mus musculus [36] = assay: In-vivo stabilization of SMN2 mRNA in SMA neonatal delta7 mouse model assessed as increase in free SMN protein levels by measuring free AUC (0 to 42 hrs) at 3 mg/kg, ip dosed once daily starting from postnatal day 3 to postnatal day 9; type: functional
[37] = Stabilization of human MADD mRNA splicing expressed in human SMA-derived fibroblasts at 131 to 655 nM by RT-qPCR analysis; type: ADME; details: 0.655 µM
[38] = Stabilization of human APLP2 mRNA splicing expressed in human SMA-derived fibroblasts at 131 to 655 nM by RT-qPCR analysis; type: ADME; details: 0.655 µM
[39] = Stabilization of human […] mRNA splicing expressed in human SMA-derived fibroblasts at 131 to 655 nM by RT-qPCR analysis; type: ADME; details: 0.655 µM
[40] = Stabilization of human STRN3 mRNA splicing expressed in human SMA-derived fibroblasts at 131 to 655 nM by RT-qPCR analysis; type: ADME; details: 0.655 µM
[41] = Chronic toxicity in retina of po dosed cynomolgus monkey assessed as multifocal peripheral retina degeneration after 39 weeks by OCT analysis; type: organism-based, Macaca fascicularis; details: in vivo, 6552 h
[42] = Chronic toxicity in retina of po dosed cynomolgus monkey assessed as formation of microcystic spaces in the inner retinal layers after 39 weeks by OCT analysis; type: organism-based, Macaca fascicularis; details: in vivo, 6552 h
[43] = Chronic toxicity in retina of po dosed cynomolgus monkey assessed as formation of scotopic depressed B-waves after 39 weeks by ERG analysis; type: organism-based, Macaca fascicularis; details: in vivo, 6552 h
[44] = Chronic toxicity in retina of po dosed cynomolgus monkey assessed as effect on outer nuclear layers after 39 weeks by histological analysis; type: organism-based, Macaca fascicularis; details: in vivo, 6552 h
[45] = Chronic toxicity in retina of po dosed cynomolgus monkey assessed as effect on photo-receptor layers after 39 weeks by histological analysis; type: organism-based, Macaca fascicularis; details: in vivo, 6552 h
[46] = Chronic toxicity in retina of po dosed cynomolgus monkey assessed as excess vacuolation of inner nuclear layer after 39 weeks by histological analysis; type: organism-based, Macaca fascicularis; details: in vivo, 6552 h
[47] = Chronic toxicity in retina of po dosed cynomolgus monkey assessed as RPE hypertrophy 39 weeks by histological analysis; type: organism-based, Macaca fascicularis; details: in vivo, 6552 h

SMILES: Cc1cn2nc(-c3cc(=O)n4cc(N5CCN6CCC[C@H]6C5)ccc4n3)cc(C)c2n1
- EC1.5 (Homo sapiens [1]): 2 nM
- EC1.5 [2]: 22 nM

SMILES: Cc1cn2cc(-c3cc(=O)n4cc(N5CCN6CCC[C@H]6C5)ccc4n3)cc(C)c2n1
- Vd (in vivo): 15 L/kg
- pKa (physchem): 8.6

SMILES: Cc1cn2cc(-c3cc(=O)n4cc(N5CCC(N6CCCC6)CC5)ccc4n3)cc(C(F)(F)F)c2n1
- Vd (in vivo): 18 L/kg
- pKa (physchem): 9.3

SMILES: CCc1nc(C)cn2nc(C3=CC(=O)N4C=C(C5CCNCC5)C=C(C)C4N3)cc12 (stereo unspecified)
- EC50 [3]: 23 nM
- Drug metabolism [4]: <= 9 %ID
- Drug metabolism [5]: <= 9 %ID
- efflux ratio [6]: 18.7
- Drug metabolism [7]: <= 9 %ID
- EC1.5 (Homo sapiens [1]): < 2 nM
- efflux ratio [8]: 20

SMILES: CCc1nc(C)cn2nc(-c3cc(=O)n4cc(C5CCN(CC)CC5)cc(C)c4n3)cc12
- Vd (in vivo): 20 L/kg
- pKa (physchem): 9.1

SMILES: Cc1cn2cc(-c3cc(=O)n4cc(N5CCN(C)CC5)ccc4n3)cc(F)c2n1
- Vd (in vivo): 5 L/kg
- pKa (physchem): 7.2

SMILES: CCc1nc(C)cn2nc(-c3cc(=O)n4cc(N5CCN6CCC[C@H]6C5)ccc4n3)cc12
- EC1.5 (Homo sapiens [1]): 40 nM
- EC1.5 [2]: 163 nM

SMILES: CCc1nc(C)cn2nc(-c3cc(=O)n4cc(N5CCN6CCC[C@]6(C)C5)ccc4n3)cc12
- Vd (in vivo): 15 L/kg
- pKa (physchem): 8.4

SMILES: CCc1nc(C)cn2nc(-c3cc(=O)n4cc(C5CCN(C)CC5)cc(C)c4n3)cc12
- Tmax [9]: 5 to 8 h
- half-life [10]: 120 h
- EC1.5 (Homo sapiens [11]): 23 nM
- EC50 [12]: 247 nM
- EC50 [3]: 352 nM
- IC50 ([13]; Homo sapiens): 1850 nM
- IC50 ([14]; Macaca fascicularis): 900 nM
- IC50 [15]: 1800 nM
- IC20 (hERG (KCNH2)): 500 nM
- Time [16]: 10 ms
- IC50 (NIH3T3): 330 nM
- IC50 [17]: > 10000 nM
- Vd [18]: 20 to 30 L/kg
- half-life [19]: 19 h
- half-life [20]: 42 h
- Drug metabolism [21]: Metabolite_Detected
- Drug metabolism [22]: Metabolite_Detected
- Drug metabolism [23]: Metabolite_Detected
- Drug metabolism [24]: Metabolite_Detected
- Drug metabolism [25]: Metabolite_Detected
- Drug metabolism [26]: Metabolite_Detected
- Drug metabolism [27]: Metabolite_Detected
- efflux ratio [6]: 2
- logD [28]: 2.3
- clearance [29]: 25 mL/min/kg
- Vd [30]: 29 L/kg
- half-life [31]: 19 h
- bioavailability [32]: 100%
- half-life [33]: 42 h
- bioavailability [34]: 52%
- fAUC (Mus musculus [35]): 73 ng·h/mL
- fAUC (Mus musculus [36]): 118 ng·h/mL
- EC1.5 [2]: 87 nM
- Activity [37]: Non-Toxic
- Activity [38]: Non-Toxic
- Activity [39]: Non-Toxic
- Activity [40]: Non-Toxic
- Activity [41]: Toxic
- Activity [42]: Toxic
- Activity [43]: Toxic
- Activity [44]: Toxic
- Activity [45]: Toxic
- Activity [46]: Toxic
- Activity [47]: Toxic
- Vd (in vivo): 20 to 30 L/kg
- pKa (physchem): 10.9

SMILES: Cc1nc2c(F)cc(-c3cc(=O)n4cc(N5CCN6CCC[C@H]6C5)ccc4n3)cc2o1
- Vd (in vivo): 4 L/kg
- pKa (physchem): 7.5

SMILES: Cc1cn2nc(-c3cc(=O)n4cc(N5CCN6CCC[C@H]6C5)ccc4n3)ccc2n1
- EC1.5 (Homo sapiens [1]): 3 nM
- EC1.5 [2]: 20 nM

SMILES: Cc1cn2cc(-c3cc(=O)n4cc(N5CCN6CCC[C@H]6C5)ccc4n3)cc(C(F)(F)F)c2n1
- Vd (in vivo): 7 L/kg
- pKa (physchem): 7.3

SMILES: CCc1nc(C)cn2nc(-c3cc(=O)n4cc(N5CCN6CCC[C@@H]6C5)ccc4n3)cc12
- Vd (in vivo): 7 L/kg
- pKa (physchem): 7.6

SMILES: Cc1cn2nc(-c3cc(=O)n4cc(N5CCN(O)C6(CC6)C5)ccc4n3)cc(C)c2n1
- Activity ([13]; human): Non-Toxic
- Activity ([14]; cynomolgus monkey): Non-Toxic

SMILES: Cc1cn2cc(-c3cc(=O)n4cc(N5CCN6CCC[C@@]6(C)C5)ccc4n3)cc(C(F)(F)F)c2n1
- Vd (in vivo): 9 L/kg
- pKa (physchem): 8.4

SMILES: CCc1nc(C)cn2cc(-c3cc(=O)n4cc(N5CCC(N6CCC6)CC5)cc(C)c4n3)cc12
- Vd (in vivo): 20 L/kg
- pKa (physchem): 8.9
